According to patent US20170136001A1, “METHOD OF TREATING A VIRAL INFECTION USING ELVITEGRAVIR COMBINATIONS” (priority 2007, published 2017):

Tests used:
[1] = Study 2: steady-state pharmacokinetic interaction between atazanavir/r and the Compound (85 mg test, 150 mg reference); format: in vivo, human
From the text: Consideration was given to achieving equivalent Compound exposures in patients receiving and not receiving atazanavir using pharmacokinetic (bio-) equivalence comparisons (Pharsight Corporation, Mountain View, Calif., USA). Consideration was also given to minimizing the number of individuals with extreme outliers in (low or high) exposures.

[2] = Example 2: pharmacokinetic interaction, EVG/ATV 300/400 mg versus EVG/r 300/100 mg, with midazolam CYP3A probe; details: midazolam oral syrup 5 mg with last dose; EVG/ATV vs. EVG/r
Method: This study evaluated the safety and steady-state pharmacokinetics of the co-administered Compound and ATV.
Healthy subjects received EVG/r 300/100 mg or EVG/ATV 300/400 mg in a randomized, crossover manner for 10 days each, with the last dose being coadministered with the CYP3A probe substrate midazolam (oral syrup; 5 mg) and pharmacokinetic (PK) sampling performed. […] ATV, midazolam, and ritonavir pharmacokinetics were also determined for descriptive statistics.

[3] = Study 1: steady-state pharmacokinetic interaction between atazanavir/r and the Compound (200 mg); format: in vivo, human
From the text: This study evaluated the safety and steady-state pharmacokinetics of the coadministered Compound and ATV/r.

Structure (SMILES): COC(=O)N[C@H](C(=O)N[C@@H](Cc1ccccc1)[C@@H](O)CN(Cc1ccc(-c2ccccn2)cc1)NC(=O)[C@@H](NC(=O)OC)C(C)(C)C)C(C)(C)C [ATV, 1-[4-(pyridine-2-yl)-phenyl]-4(S)-2,5-bis-[N—(N-methoxycarbonyl-(L)-tert-leucyl)amino]-6-phenyl-2-axahexane]
- Cmax % GMR (90% CI) ([1]; Study 2, coadministration (the Compound 85 mg + ATV/r 300/100 mg QD) : alone (the Compound reference 150 mg), 14 days, healthy subjects): 96.0%
- ATV exposures ([1]; with the reduced 85 mg dose of the Compound): not affected

Structure (SMILES): Cc1ncc2n1-c1ccc(Cl)cc1C(c1ccccc1F)=NC2 [midazolam]
- midazolam AUCinf geometric mean ratio (90% CI) [2]: 89.5 (80.7, 99.3)
- midazolam Cmax geometric mean ratio (90% CI) [2]: 98.8 (89.6, 109)

Structure (SMILES): COc1cc2c(cc1Cc1cccc(Cl)c1F)c(=O)c(C(=O)O)cn2[C@H](CO)C(C)C [the Compound, 6-(3-chloro-2-fluorobenzyl)-1-[(2S)-1-hydroxy-3-methylbutan-2-yl]-7-methoxy-4-oxo-1,4-dihydroquinoline-3-carboxylic acid]
- systemic exposure ([1]; 85 mg of the Compound with ritonavir-boosted atazanavir compared with the 150 mg dose of the Compound alone): equivalent
- AUCtau % GMR (90% CI) ([3]; Study 1, coadministration (the Compound 200 mg + ATV/r 300/100 mg QD) : alone, 14 days, healthy subjects): 200%
- the Compound exposures upon coadministration with ATV/r ([3]; coadministration with ATV/r): elevated
